± gives the expanded uncertainty stated by the source.
Legend:
[1] = 298.15 K; 101.33 kPa; Liquid; Pycnometric method
[2] = molar heat capacity at constant pressure; conditions: 101.33 kPa, Liquid, Small sample (50 mg) DSC
[3] = refractive index (Na D-line) (dimensionless); conditions: 298.15 K; 101.33 kPa; Liquid; Standard Abbe refractometry

CCC(C)(C)O [2-methylbutan-2-ol]
Conditions | mass density [kg/m3] | refractive index
[1] | 804.32 ± 0.79 | –
[3] | – | 1.4025 ± 0.0008

[2]
Conditions | molar heat capacity at constant pressure [J/K/mol]
284.14 K | 233.4 ± 3.6
285.15 K | 234.44 ± 3.6
286.16 K | 235.36 ± 3.6
287.14 K | 236.15 ± 3.7
288.15 K | 237.23 ± 3.7
289.14 K | 238.19 ± 3.7
290.14 K | 239.11 ± 3.7
291.15 K | 240.18 ± 3.7
292.14 K | 241.19 ± 3.7
293.14 K | 242.22 ± 3.8
294.15 K | 243.25 ± 3.8
295.14 K | 244.25 ± 3.8
296.14 K | 245.3 ± 3.8
297.15 K | 246.36 ± 3.8
298.14 K | 247.43 ± 3.8
298.15 K | 247.44 ± 3.8
298.16 K | 247.45 ± 3.8
299.14 K | 248.43 ± 3.9
300.15 K | 249.45 ± 3.9
301.14 K | 250.56 ± 3.9
302.14 K | 251.71 ± 3.9
303.15 K | 252.8 ± 3.9
304.14 K | 253.86 ± 3.9
305.14 K | 255.01 ± 4
306.15 K | 256.09 ± 4
307.16 K | 257.16 ± 4
308.14 K | 258.22 ± 4
309.15 K | 259.29 ± 4
310.16 K | 260.36 ± 4
311.14 K | 261.32 ± 4
312.15 K | 262.41 ± 4.1
313.16 K | 263.51 ± 4.1
314.14 K | 264.5 ± 4.1
315.15 K | 265.53 ± 4.1
316.16 K | 266.49 ± 4.1
317.14 K | 267.5 ± 4.1
318.15 K | 268.57 ± 4.2
319.15 K | 269.56 ± 4.2
320.14 K | 270.43 ± 4.2
321.15 K | 271.49 ± 4.2
322.15 K | 272.37 ± 4.2
323.14 K | 273.32 ± 4.2
324.15 K | 274.25 ± 4.2
325.15 K | 275.15 ± 4.3
326.14 K | 276.09 ± 4.3
327.15 K | 276.89 ± 4.3
328.15 K | 277.86 ± 4.3
329.14 K | 278.7 ± 4.3
330.14 K | 279.59 ± 4.3
331.15 K | 280.35 ± 4.3
332.14 K | 281.18 ± 4.4
333.14 K | 282.05 ± 4.4
334.15 K | 283 ± 4.4
335.14 K | 283.68 ± 4.4
336.14 K | 284.35 ± 4.4
337.15 K | 285.19 ± 4.4
338.14 K | 285.94 ± 4.4
339.14 K | 286.59 ± 4.4
340.15 K | 287.37 ± 4.5
341.13 K | 287.88 ± 4.5
342.14 K | 288.59 ± 4.5
343.15 K | 289.15 ± 4.5
344.16 K | 289.83 ± 4.5
345.14 K | 290.42 ± 4.5
346.15 K | 290.94 ± 4.5
347.16 K | 291.42 ± 4.5
348.14 K | 292.03 ± 4.5
349.15 K | 292.61 ± 4.5
350.16 K | 293.03 ± 4.5
351.14 K | 293.51 ± 4.5
352.15 K | 293.87 ± 4.5
353.15 K | 294.39 ± 4.6
354.15 K | 294.87 ± 4.6
355.13 K | 295.24 ± 4.6
356.14 K | 295.66 ± 4.6
357.15 K | 296.1 ± 4.6
358.15 K | 296.36 ± 4.6
359.14 K | 296.72 ± 4.6
360.15 K | 296.98 ± 4.6
361.15 K | 297.18 ± 4.6
362.15 K | 297.48 ± 4.6
363.14 K | 297.69 ± 4.6
364.15 K | 297.95 ± 4.6
365.15 K | 298.16 ± 4.6
366.14 K | 298.39 ± 4.6
367.15 K | 298.46 ± 4.6
368.15 K | 298.75 ± 4.6
368.76 K | 298.79 ± 4.6

OC1CCCC1 [cyclopentanol]
Conditions | mass density [kg/m3] | refractive index
[1] | 942.86 ± 0.95 | –
[3] | – | 1.4512 ± 0.0008

[2]
Conditions | molar heat capacity at constant pressure [J/K/mol]
284.16 K | 170.24 ± 2.6
285.15 K | 170.99 ± 2.6
286.16 K | 171.81 ± 2.7
287.14 K | 172.53 ± 2.7
288.15 K | 173.41 ± 2.7
289.16 K | 174.28 ± 2.7
290.14 K | 175.01 ± 2.7
291.15 K | 175.87 ± 2.7
292.16 K | 176.75 ± 2.7
293.14 K | 177.58 ± 2.8
294.15 K | 178.43 ± 2.8
295.16 K | 179.3 ± 2.8
296.14 K | 180.09 ± 2.8
297.15 K | 180.97 ± 2.8
298.14 K | 181.8 ± 2.8
298.15 K | 181.82 ± 2.8
298.16 K | 181.83 ± 2.8
299.14 K | 182.68 ± 2.8
300.15 K | 183.51 ± 2.8
301.16 K | 184.44 ± 2.9
302.14 K | 185.33 ± 2.9
303.15 K | 186.22 ± 2.9
304.16 K | 187.09 ± 2.9
305.14 K | 188.03 ± 2.9
306.15 K | 188.94 ± 2.9
307.16 K | 189.83 ± 2.9
308.14 K | 190.71 ± 3
309.15 K | 191.61 ± 3
310.16 K | 192.53 ± 3
311.14 K | 193.42 ± 3
312.15 K | 194.35 ± 3
313.16 K | 195.28 ± 3
314.14 K | 196.15 ± 3
315.15 K | 197.1 ± 3
316.16 K | 198.01 ± 3.1
317.14 K | 198.91 ± 3.1
318.15 K | 199.88 ± 3.1
319.15 K | 200.81 ± 3.1
320.14 K | 201.63 ± 3.1
321.15 K | 202.63 ± 3.1
322.15 K | 203.57 ± 3.1
323.14 K | 204.44 ± 3.2
324.15 K | 205.36 ± 3.2
325.15 K | 206.28 ± 3.2
326.16 K | 207.24 ± 3.2
327.15 K | 208.09 ± 3.2
328.15 K | 209.05 ± 3.2
329.14 K | 209.96 ± 3.2
330.14 K | 210.87 ± 3.3
331.15 K | 211.73 ± 3.3
332.14 K | 212.64 ± 3.3
333.14 K | 213.55 ± 3.3
334.15 K | 214.51 ± 3.3
335.16 K | 215.32 ± 3.3
336.14 K | 216.18 ± 3.4
337.15 K | 217.08 ± 3.4
338.16 K | 218.05 ± 3.4
339.14 K | 218.88 ± 3.4
340.15 K | 219.81 ± 3.4
341.16 K | 220.6 ± 3.4
342.14 K | 221.48 ± 3.4
343.15 K | 222.33 ± 3.4
344.16 K | 223.27 ± 3.5
345.14 K | 224.05 ± 3.5
346.15 K | 224.85 ± 3.5
347.16 K | 225.68 ± 3.5
348.14 K | 226.51 ± 3.5
349.15 K | 227.32 ± 3.5
350.15 K | 228.13 ± 3.5
351.14 K | 228.9 ± 3.5
352.15 K | 229.66 ± 3.6
353.15 K | 230.44 ± 3.6
